Measurements reported in US8853214B2, “Pyridazine compounds for controlling invertebrate pests” (BASF SE, priority 2010, dated 2014).

Test system: Aphis craccivora
Experiment: Cowpea aphid (Aphis craccivora) spray test on potted cowpea plants
Format: in vivo
Settings: in comparison with untreated controls, population reduction assessed after 24, 72 and 120 hours
Procedure: II.1 Cowpea Aphid (Aphis craccivora)
The active compounds were formulated in 50:50 (vol:vol) acetone:water. The test solution was prepared at the day of use.
Potted cowpea plants colonized with 100-150 aphids of various stages were sprayed after the pest population had been recorded. Population reduction was assessed after 24, 72, and 120 hours.

With O=C(Nc1ccnnc1)c1ccco1 [II.31, Furan-2-carboxylic acid pyridazin-4-ylamide] the mortality at 500 ppm was no less than 75%.
